According to paper PMC9142856 (Heliyon, 2022):

Target: dipeptidyl peptidase-IV (DPP-IV) (Homo sapiens, UniProt P27487)
Assay: in vitro enzyme inhibition assay, Gly-Pro-p-nitroanilide substrate
Assay type: biochemical

dipeptidyl peptidase-IV (DPP-IV), sequence (P27487 39-766): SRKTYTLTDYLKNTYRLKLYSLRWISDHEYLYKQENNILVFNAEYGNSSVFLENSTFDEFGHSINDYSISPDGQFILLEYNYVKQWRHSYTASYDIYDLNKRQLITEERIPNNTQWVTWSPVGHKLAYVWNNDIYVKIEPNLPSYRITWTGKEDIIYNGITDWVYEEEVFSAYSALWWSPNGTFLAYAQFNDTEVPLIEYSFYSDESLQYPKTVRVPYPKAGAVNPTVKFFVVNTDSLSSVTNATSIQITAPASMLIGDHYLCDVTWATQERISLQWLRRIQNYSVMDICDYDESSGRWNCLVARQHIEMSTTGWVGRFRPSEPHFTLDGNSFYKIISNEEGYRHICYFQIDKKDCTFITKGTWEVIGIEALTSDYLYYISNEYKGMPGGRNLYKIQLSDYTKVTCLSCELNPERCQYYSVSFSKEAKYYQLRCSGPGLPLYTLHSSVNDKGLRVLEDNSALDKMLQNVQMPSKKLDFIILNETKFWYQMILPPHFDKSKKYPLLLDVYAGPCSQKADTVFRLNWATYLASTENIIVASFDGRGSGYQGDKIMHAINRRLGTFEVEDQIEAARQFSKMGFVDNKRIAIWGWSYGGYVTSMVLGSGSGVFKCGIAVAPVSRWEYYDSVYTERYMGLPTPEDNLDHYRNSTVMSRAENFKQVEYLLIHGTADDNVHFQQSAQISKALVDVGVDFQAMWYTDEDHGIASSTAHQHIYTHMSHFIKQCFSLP

IC50: 10.5 µM
SMILES: CC(C)=CCC/C(C)=C/Cc1c(O)ccc(C(=O)/C=C/c2ccc(O)cc2)c1O [XA, xanthoangelol]
